Experimental data taken from patent US9540377B2, “2,6,7,8 substituted purines as HDM2 inhibitors” (Merck Sharp & Dohme Corp., priority 2013, dated 2017).

Each molecule was assayed against HDM2 (truncated, residues 17 to 125, containing p53 binding surface) (Homo sapiens (Human), UniProt Q00987) (assay: HDM2 FRET assay (inhibition of binding of FITC labeled p53-site peptide to HDM2)). Conditions: Table 18.
Excerpt: IC50 DETERMINATIONS: Dose-response curves were plotted from the inhibition data, from 10 point serial dilutions of inhibitory compounds. Concentration of compound was plotted against em520/Cem495 ratio signal. To generate IC50 values, the dose-response curves were fitted to a standard sigmoidal curve and IC50 values were derived by nonlinear regression analysis.

HDM2 (truncated, residues 17 to 125, containing p53 binding surface), sequence (Q00987 17-125): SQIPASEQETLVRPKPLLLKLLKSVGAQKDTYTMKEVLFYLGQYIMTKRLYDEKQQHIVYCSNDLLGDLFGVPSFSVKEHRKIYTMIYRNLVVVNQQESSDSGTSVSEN

**Q.** With `CC([C@H]1CC[C@H](C)CC1)n1c(N2CCOC3CCCC32)nc2nc(-c3noc(=O)[nH]3)nc(-c3cccc(Cl)c3)c21` (single isomer, unassigned) [Example 18.37, 3-{6-(3-chlorophenyl)-8-(hexahydrocyclopenta[b][1,4]oxazin-4(4aH)-yl)-7-[1-(trans-4-methylcyclohexyl)ethyl]-7H-purin-2-yl}-1,2,4-oxadiazol-5(4H)-one] as the molecule, how does the IC50 read?
**A.** 2.21 nM

Same assay, conditions: Table 23

**Q.** Which IC50 does the source give for `CC(F)(c1c(F)cccc1F)c1nc2nc(-c3noc(=O)[nH]3)nc(-c3cncc(Cl)c3)c2n1C[C@H]1CC[C@H](C)CC1` (single isomer, unassigned) [Example 23.68, 3-{6-(5-chloropyridin-3-yl)-8-[1-(2,6-difluorophenyl)-1-fluoroethyl]-7-[(trans-4-methylcyclohexyl)methyl]-7H-purin-2-yl}-1,2,4-oxadiazol-5(4H)-one] here?
**A.** 4.26 nM

**Q.** `C[C@H]1CC[C@H](Cn2c(C(O)C3CCCCC3)nc3nc(-c4noc(=O)[nH]4)nc(-c4cccc(Cl)c4)c32)CC1` (mixture of isomers) [Example 23.5, 3-{6-(3-chlorophenyl)-8-[cyclohexyl(hydroxy)methyl]-7-[(trans-4-methylcyclohexyl)methyl]-7H-purin-2-yl}-1,2,4-oxadiazol-5(4H)-one] was tested. Which IC50 did it give?
**A.** 7.17 nM

**Q.** With `COC(c1nc2nc(-c3noc(=O)[nH]3)nc(-c3cncc(Cl)c3)c2n1C[C@H]1CC[C@H](C)CC1)C1CCCC1` (mixture of isomers) [Example 23.61, 3-{6-(5-chloropyridin-3-yl)-8-[cyclopentyl(methoxy)methyl]-7-[(trans-4-methylcyclohexyl)methyl]-7H-purin-2-yl}-1,2,4-oxadiazol-5(4H)-one] as the molecule, how does the IC50 read?
**A.** 4.64 nM

**Q.** For `CC(c1c(F)cccc1F)c1nc2nc(-c3noc(=O)[nH]3)nc(-c3cncc(Cl)c3)c2n1C[C@H]1CC[C@H](C)CC1` (mixture of isomers) [Example 23.115, 3-{6-(5-chloropyridin-3-yl)-8-[1-(2,6-difluorophenyl)ethyl]-7-[(trans-4-methylcyclohexyl)methyl]-7H-purin-2-yl}-1,2,4-oxadiazol-5(4H)-one], which IC50 is on record?
**A.** 2.23 nM

**Q.** Which IC50 does the source give for `COC(c1nc2nc(-c3n[nH]c(=O)o3)nc(-c3cccc(Cl)c3)c2n1C[C@H]1CC[C@H](C)CC1)C1CCCCC1` (mixture of isomers) [Example 23.15, 5-{6-(3-chlorophenyl)-8-[cyclohexyl(methoxy)methyl]-7-[(trans-4-methylcyclohexyl)methyl]-7H-purin-2-yl}-1,3,4-oxadiazol-2(3H)-one] here?
**A.** 23 nM

**Q.** How did the IC50 turn out when `CC1CCCCC1(F)c1nc2nc(-c3n[nH]c(=O)o3)nc(-c3cncc(Cl)c3)c2n1C[C@H]1CC[C@H](C)CC1` (single isomer, unassigned) [Example 23.83, 5-{6-(5-chloropyridin-3-yl)-8-(1-fluoro-2-methylcyclohexyl)-7-[(trans-4-methylcyclohexyl)methyl]-7H-purin-2-yl}-1,3,4-oxadiazol-2(3H)-one] was run?
**A.** 6.31 nM

**Q.** How did the IC50 turn out when `CC(F)(c1ccccc1F)c1nc2nc(-c3noc(=O)[nH]3)nc(-c3cncc(Cl)c3)c2n1C[C@H]1CC[C@H](C)CC1` (single isomer, unassigned) [Example 23.34, 3-{6-(5-chloropyridin-3-yl)-8-[1-fluoro-1-(2-fluorophenyl)ethyl]-7-[(trans-4-methylcyclohexyl)methyl]-7H-purin-2-yl}-1,2,4-oxadiazol-5(4H)-one] was run?
**A.** 9.3 nM

**Q.** How did the IC50 turn out when `CC(c1ccccc1F)c1nc2nc(-c3noc(=O)[nH]3)nc(-c3cncc(Cl)c3)c2n1C[C@H]1CC[C@H](C)CC1` (mixture of isomers) [Example 23.113, 3-{6-(5-chloropyridin-3-yl)-8-[1-(2-fluorophenyl)ethyl]-7-[(trans-4-methylcyclohexyl)methyl]-7H-purin-2-yl}-1,2,4-oxadiazol-5(4H)-one] was run?
**A.** 1.39 nM

**Q.** `CC(F)(c1ncccc1F)c1nc2nc(-c3n[nH]c(=O)o3)nc(-c3cncc(Cl)c3)c2n1C[C@H]1CC[C@H](C)CC1` (single isomer, unassigned) [Example 23.84, 5-{6-(5-chloropyridin-3-yl)-8-[1-fluoro-1-(3-fluoropyridin-2-yl)ethyl]-7-[(trans-4-methylcyclohexyl)methyl]-7H-purin-2-yl}-1,3,4-oxadiazol-2(3H)-one] was tested. Which IC50 did it give?
**A.** 16.5 nM

**Q.** Which IC50 does the source give for `COC(c1nc2nc(-c3n[nH]c(=O)o3)nc(-c3cncc(Cl)c3)c2n1C[C@H]1CC[C@H](C)CC1)C1CCCCC1` (mixture of isomers) [Example 23.22, 5-{6-(5-chloropyridin-3-yl)-8-[cyclohexyl(methoxy)methyl]-7-[(trans-4-methylcyclohexyl)methyl]-7H-purin-2-yl}-1,3,4-oxadiazol-2(3H)-one] here?
**A.** 12 nM

**Q.** How did the IC50 turn out when `CC(c1ccccc1C#N)c1nc2nc(-c3noc(=O)[nH]3)nc(-c3cncc(Cl)c3)c2n1C[C@H]1CC[C@H](C)CC1` (mixture of isomers) [Example 23.116, 2-{1-[6-(5-chloropyridin-3-yl)-7-[(trans-4-methylcyclohexyl)methyl]-2-(5-oxo-4,5-dihydro-1,2,4-oxadiazol-3-yl)-7H-purin-8-yl]ethyl}benzonitrile] was run?
**A.** 2.38 nM

**Q.** Which IC50 does the source give for `COC(C)(c1ncoc1C)c1nc2nc(-c3noc(=O)[nH]3)nc(-c3cccc(Cl)c3)c2n1C[C@H]1CC[C@H](C)CC1` (mixture of isomers) [Example 23.57, 3-{6-(3-chlorophenyl)-8-[1-methoxy-1-(5-methyl-1,3-oxazol-4-yl)ethyl]-7-[(trans-4-methylcyclohexyl)methyl]-7H-purin-2-yl}-1,2,4-oxadiazol-5(4H)-one] here?
**A.** 2.07 nM

**Q.** How did the IC50 turn out when `COC(C)(c1c(F)cccc1F)c1nc2nc(-c3n[nH]c(=O)o3)nc(-c3cncc(Cl)c3)c2n1C[C@H]1CC[C@H](C)CC1` (single isomer, unassigned) [Example 23.89, 5-{6-(5-chloropyridin-3-yl)-8-[1-(2,6-difluorophenyl)-1-methoxyethyl]-7-[(trans-4-methylcyclohexyl)methyl]-7H-purin-2-yl}-1,3,4-oxadiazol-2(3H)-one] was run?
**A.** 5.12 nM

**Q.** Which IC50 does the source give for `CC(F)(c1ccccc1F)c1nc2nc(-c3n[nH]c(=O)o3)nc(-c3cncc(Cl)c3)c2n1C[C@H]1CC[C@H](C)CC1` (single isomer, unassigned) [Example 23.33, 5-{6-(5-chloropyridin-3-yl)-8-[1-fluoro-1-(2-fluorophenyl)ethyl]-7-[{trans-4-methylcyclohexyl)methyl]-7H-purin-2-yl}-1,3,4-oxadiazol-2(3H)-one] here?
**A.** 0.453 nM

**Q.** `CC(F)(c1ccccn1)c1nc2nc(-c3noc(=O)[nH]3)nc(-c3cccc(Cl)c3)c2n1C[C@H]1CC[C@H](C)CC1` (single isomer, unassigned) [Example 23.31, 3-{6-(3-chlorophenyl)-8-(1-fluoro-1-pyridin-2-ylethyl)-7-[(trans-4-methylcyclohexyl)methyl]-7H-purin-2-yl}-1,2,4-oxadiazol-5(4H)-one] was tested. Which IC50 did it give?
**A.** 3.73 nM

**Q.** For `CC(F)(c1ncccc1F)c1nc2nc(-c3noc(=O)[nH]3)nc(-c3cncc(Cl)c3)c2n1C[C@H]1CC[C@H](C)CC1` (single isomer, unassigned) [Example 23.99, 3-{6-(5-chloropyridin-3-yl)-8-[1-fluoro-1-(3-fluoropyridin-2-yl)ethyl]-7-[(trans-4-methylcyclohexyl)methyl]-7H-purin-2-yl}-1,2,4-oxadiazol-5(4H)-one], which IC50 is on record?
**A.** 0.315 nM
